The source of these data is US7241579B2, “Method of screening for GPR40 ligands” (SmithKline Beecham Corporation, priority 2000, dated 2007).

T1 sequence (O14842 whole entry): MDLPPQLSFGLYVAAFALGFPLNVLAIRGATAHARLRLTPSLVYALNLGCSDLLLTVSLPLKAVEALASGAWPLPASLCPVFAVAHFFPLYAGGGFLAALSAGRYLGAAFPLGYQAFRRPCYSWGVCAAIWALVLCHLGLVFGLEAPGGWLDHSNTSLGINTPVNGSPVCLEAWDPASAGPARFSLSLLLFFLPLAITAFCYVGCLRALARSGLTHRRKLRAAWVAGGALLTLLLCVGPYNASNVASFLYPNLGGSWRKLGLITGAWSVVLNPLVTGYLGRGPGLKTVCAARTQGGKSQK

One assay deals with T1, human GPR40 (Homo sapiens, UniProt O14842). The assay is described as follows: FLIPR intracellular calcium response in HEK-293 cells transiently expressing GPR40. In kind it is cell-based. On the set-up: expressed in transfected cells; host or cells: HEK-293 (transient). Conditions: FLIPR, GPR40 stimulation; first of up to 3 experiments; read-out: Mean pEC50 (converted). The text has this:
The Fluorometric Imaging Plate Reader (FLIPR™, Molecular Devices, UK) measures intracellular fluorescense in multi-well microplates. Where a GPCR couples to a calcium signalling pathway, the FLIPR system can be used with cells expressing the G-protein coupled receptor and containing calcium-sensitive fluorescent dyes, to monitor the intracellular calcium flux that occurs after activation of the G-coupled receptor. See, e.g., Kirk et al., J. Biomolecular Screening, 1:75 (1996).
The assays utilized a G-protein cocktail (+GPC) that contained chimeric and promiscuous G-proteins, as is known in the art of screening orphan G-protein coupled receptors.
On the technique in general: Calcium assays in cells follow changes in intracellular calcium, usually with a dye or a luminescent sensor.
For the compound `CCCCCCCCCCCCCCCCCCCCC(=O)O` [Heneicosanoic acid], the EC50 was 35.5 µM.
As for `CCCCCCCCCCCCCCCCC(=O)O` [Heptadecanoic acid], the EC50 was 13.8 µM.
Still for that read-out and setting: the figure for `CCCCCCC(=O)O` [Heptanoic acid] is 46.8 µM.
As for `CCCCCCCCCCCC(=O)O` [Lauric acid], the EC50 is 17.8 µM.
As to `CCCCCCCCCCCCCCCCCCC(=O)O` [Nonadecanoic acid], the EC50 is 26.3 µM.
In the case of `CCCCCCCCCCCCCCCC(=O)O` [Palmitic acid], the EC50 was 8.32 µM.
On to `CCCCCC/C=C\CCCCCCCC(=O)O` [Palmitoleic acid], for which the EC50 is 15.1 µM.
As to `CCCCCCCCCCCCCCC(=O)O` [Pentadeconoic acid], the EC50 was 10.7 µM.
In the case of `CCCCCCCCCCCCCCCCCC(=O)O` [Stearic acid], the EC50 is 20 µM.
As for `CCCCCCCCCCC(=O)O` [Undecanoic acid], the EC50 is 25.1 µM.

The assay is the same for the next values; noted with them: FLIPR, GPR40 stimulation; second of up to 3 experiments; read-out: Mean pEC50 (converted).
As for `CCCCCCCCCCCCCCCCCCCCCC(=O)O` [Behenic acid], the EC50 is 49 µM.
For the compound `CCCCCCCCCCCCCCCCCCCCC(=O)O` [Heneicosanoic acid], the EC50 was 29.5 µM.
With `CCCCCCCCCCCCCCCCC(=O)O` [Heptadecanoic acid], the EC50 was 10.2 µM.
`CCCCCCC(=O)O` [Heptanoic acid]: the EC50 is 60.3 µM.
Take `CCCCCCCCCCCC(=O)O` [Lauric acid]: the EC50 is 11.7 µM.
The same measure, in the same setting: the figure for `CCCCCCCCCCCCCCCCCCC(=O)O` [Nonadecanoic acid] is 34.7 µM; for `CCCCCCCCCCCCCCCC(=O)O` [Palmitic acid] it is 3.09 µM.
The same measure, in the same setting: next, `CCCCCC/C=C\CCCCCCCC(=O)O` [Palmitoleic acid]: 15.5 µM; `CCCCCCCCCCCCCCC(=O)O` [Pentadeconoic acid]: 4.37 µM.
For `CCCCCCCCCCCCCCCCCC(=O)O` [Stearic acid], the EC50 is 16.6 µM.
For `CCCCCCCCCCC(=O)O` [Undecanoic acid], the EC50 was 21.9 µM.

Staying with this assay, now noted: FLIPR, GPR40 stimulation; third experiment; read-out: Mean pEC50 (converted).
Take `CCCCCCCCCCCCCCCCC(=O)O` [Heptadecanoic acid]: the EC50 is 7.76 µM.
Consider `CCCCCCCCCCCC(=O)O` [Lauric acid], for which the EC50 was 8.51 µM.
Consider `CCCCCCCCCCCCCCCC(=O)O` [Palmitic acid], for which the EC50 was 5.01 µM.
As for `CCCCCC/C=C\CCCCCCCC(=O)O` [Palmitoleic acid], the EC50 is 11 µM.
As to `CCCCCCCCCCCCCCC(=O)O` [Pentadeconoic acid], the EC50 is 6.17 µM.
Take `CCCCCCCCCCCCCCCCCC(=O)O` [Stearic acid]: the EC50 is 14.1 µM.
Still for that read-out and setting: next, `CCCCCCCCCCC(=O)O` [Undecanoic acid]: 14.8 µM.

Still in this assay, the particulars now being: Mean pEC50, FLIPR, GPR40 stimulation; first of up to 3 experiments.
For `CCCCCCCCCCCCCCCCCCCCCC(=O)O` [Behenic acid], the EC50 is 51.3 µM.
As for `CCCCCCCC(=O)O` [Caprylic acid], the EC50 was 56.2 µM.
Regarding `CCCCCCCCC(=O)O` [Nonanoic acid], the EC50 is 69.2 µM.

Still in this assay, the particulars now being: Mean pEC50, FLIPR, GPR40 stimulation; second of up to 3 experiments.
As to `CCCCCCCC(=O)O` [Caprylic acid], the EC50 was 26.3 µM.
Take `CCCCCCCCC(=O)O` [Nonanoic acid]: the EC50 is 23.4 µM.

The same assay, now with this note: Mean pEC50 of 3 expts, FLIPR, GPR40 stimulation; overall mean (n = 1 or 2 where stated).
Turning to `CCCCCCCCCCCCCCCCCCCCCC(=O)O` [Behenic acid], the EC50 was 50.1 µM.
For the compound `CCCCCCCC(=O)O` [Caprylic acid], the EC50 was 38 µM.
In the case of `CCCCCCCCCCCCCCCCCCCCC(=O)O` [Heneicosanoic acid], the EC50 was 32.4 µM.
On the same count and under the same terms, the figure for `CCCCCCCCCCCCCCCCC(=O)O` [Heptadecanoic acid] is 10.2 µM; for `CCCCCCC(=O)O` [Heptanoic acid] it is 52.5 µM.
For the compound `CCCCCCCCCCCC(=O)O` [Lauric acid], the EC50 is 12 µM.
Take `CCCCCCCCCCCCCCCCCCC(=O)O` [Nonadecanoic acid]: the EC50 was 30.2 µM.
Same read-out and setting: next, `CCCCCCCCC(=O)O` [Nonanoic acid]: 39.8 µM.
With `CCCCCCCCCCCCCCCC(=O)O` [Palmitic acid], the EC50 was 5.01 µM.
On the same count and under the same terms, next, `CCCCCC/C=C\CCCCCCCC(=O)O` [Palmitoleic acid]: 13.8 µM; `CCCCCCCCCCCCCCC(=O)O` [Pentadeconoic acid]: 6.61 µM; `CCCCCCCCCCCCCCCCCC(=O)O` [Stearic acid]: 16.6 µM.
As for `CCCCCCCCCCC(=O)O` [Undecanoic acid], the EC50 was 20 µM.

The next assay concerns the target T1, human GPR40. The assay is described as follows: GAL4/Elk-1-luciferase reporter in CHO clones transfected with human GPR40, with and without pertussis toxin. In kind it is cell-based. On the set-up: expressed in transfected cells. The conditions noted are these: GPR40 clones, 1 ug/ml pertussis toxin. The text has this: To further test the coupling of GPR40 to Gαi/Gαq a Gal4/Elk-1 reporter was used. A stable, clonal reporter line was created by transfecting CHO cells with a plasmid that contains an expression construct for GAL4/Elk-1 and a GAL4-luciferase reporter construct. A similar reporter system can now be purchased from Stratagene (under the trademark […]®). An expression construct for human GPR40 which contains a G418 resistance construct was transfected into the host CHO GAL4/Elk-1 reporter cell line (10 ug plasmid DNA pCR3-GPR40) via electroporation. The cell lines were selected for with 500 ug/mL G418 until all cells in the control were dead and clones were then picked. The Gal4/Elk-1 reporter can be activated through Gq or Gi. To confirm coupling via Gi, cells were treated with pertussis toxin treatment which ADP-ribosylates Gαi preventing its interaction with receptors (Bokoch et al., J. Biol. Chem 258:2072 (1983)). Pertussis toxin has no known effect on Gαq.
Host cells and those transfected with the GPR40 construct were plated in a 96-well tissue culture plate at 2000 cells/well in DMEM/F12 supplemented with 5% FBS. After 48 hours at 37° C. at 5% CO2, the cells were placed in serum-free DMEM/F12 in the presence or absence of 1 ug/ml pertussis toxin. After 16 hours at 37° C., 5% CO2 the host cells were treated with: lysophosphatidic acid (oleoyl) (LPA) which couples through GαI to activate MAP kinase (Hordijk et al., J. Biol. Chem. 269: 645 (1994)); thrombin which couples through Gαi and Gαq (Hung et al., J. Biol. Chem. 267:20831 (1992)); or 5,8,11-Eicosatriynoic acid (a GPR40 ligand), at the concentrations indicated. The host cells containing the GPR40 construct were stimulated with or 5,8,11-Eicosatriynoic acid at the concentrations indicated. Controls for lysophosphatidic acid contained 0.5% DMSO; controls for […] contained 0.05% ethanol. Luciferase activity was assayed 4 hours after treatment using a luciferase reporter gene assay kit available under the trademark LUCLITE®, as per manufacturers instructions (Packard Bioscience).
For orientation: In a reporter assay the amount or activity of a reporter protein is the signal.
pertussis toxin: the “decrease of basal reporter activity following pertussis toxin treatment” value is listed as “up to 70%”.

The test system of another assay is CHO cells expressing CRE-luciferase with no receptor. The assay is described as follows: CRE-luciferase reporter in CHO cells containing reporter only (no receptor). Format: cell-based. Conditions: 4 hours of treatment. As for the experimental part: (§1) Specific coupling was determined in mammalian cells using transient expression of a CRE-luciferase reporter for Gαs and stable cell-lines containing Gal4/ELK-1-luciferase reporter for Gαq/Gαi. Wild-type CHO cells were co-transfected with 3×-CRE-luciferase reporter vector and various amounts of an expression vector for GPR40. The control cells were transfected with reporter vector only. The reporter gene plasmids were produced in house but similar vectors can be purchased from Stratagene ([…]®). Cells were plated in a 24 well tissue culture plate at 1×10^4 cells/well in DMEM/F12 supplemented with 5% FBS. After 72 hours at 37° C., 5% CO2, the cells were transfected using the liposomal transfection reagent sold under the trademark LIPOFECTAME® and with the following combinations of plasmids: • A-3×-CRE-Luc • B-3×-CRE-Luc+CMV-GPR40 • C-3×-CRE-Luc+CMV-Gs coupled receptor The concentration of reporter plasmid for all wells was 0.15 μg/well. Concentrations of receptor plasmids were 0.5, 1.0, 5.0, 10.0 ng/well. After 24 hrs Cells containing 1 ng/well of receptor plasmid or no DNA control and CRE-Luc reporter were treated with fatty acid or the calcitonin which is known to act through a Gs-coupled receptor (Chakraborty, Science 251: 1078 (1991)) at concentrations indicated. […]
calcitonin: the “luciferase production (CRE-luciferase)” value is reported as “increase in luciferase production”.

Another assay addresses T1, human GPR40. The assay is described as follows: CRE-luciferase reporter in CHO cells co-transfected with GPR40 expression vector. In kind it is cell-based. Set-up: expressed in transfected cells. The conditions noted are these: CHO cells containing GPR40 and CRE-Luc reporter, 4 hours of treatment. As for the experimental part:
as §1
For calcitonin, the “luciferase production (CRE-luciferase)” value is on record as “increase in luciferase production”.
